The results in this text go back to patent US20210267996A1, “Compounds for inhibition of inflammation” (Children`s Medical Center Corporation, priority 2018, published 2021).

The subject of one assay is THP-1 cells. Put plainly: Canonical inflammasome pyroptosis, LPS-primed THP-1 cells plus nigericin. Format: cell-based, human. The following applies: THP-1, nigericin.
The subject of a further assay is ASC specks. Put plainly: ASC speck formation in LPS-primed THP-1 cells plus nigericin. The assay is classed as cell-based, human. The following applies: 30 μM, 1 hr before nigericin. The method, then: (§1) Immunostaining and confocal microscopy: cells grown on coverslips were fixed for 15 min with 4% paraformaldehyde in PBS, permeabilized for 5 min in 0.1% Triton X-100 in PBS and blocked using 5% BSA for 1 hr. Then, cells were stained with the indicated primary antibodies followed by incubation with fluorescent-conjugated secondary antibodies (Jackson ImmunoResearch). Nuclei were counterstained with DAPI (4,6-diamidino-2-phenylindole) (Sigma-Aldrich). Slides were mounted using Aqua-Poly/Mount (Dako). Images were captured using a laser scanning confocal microscope (Olympus Fluoview FV1000 Confocal System) with a 63× water immersion objective and Olympus Fluoview software (Olympus). All confocal images are representative of three independent experiments.
Nigericin activates the assembly of the NLRP3 canonical inflammasome using an adaptor called apoptosis-associated speck-like protein containing a caspase recruitment domain (ASC), which can be visualized in immunofluorescent microscopy as specks. When LPS-primed THP-1 cells were treated with nigericin in the absence of inhibitors, ASC specks were detected in 30% of cells (FIG. 36). As expected, speck formation was not inhibited by z-VAD-fmk, since caspase activation occurs downstream of inflammasome assembly.
(§2) Cell death was determined by CytoTox96 assay. […] Cell death was determined by CytoTox96 assay. […] Shown are immunoblots of whole cell lysates harvested 0.5 hr later. […] Representative images of ASC specks (arrowheads) and mean±s.d. percent of cells with ASC specks analyzed 20 min later (FIG. 47). Whole cell lysates (WCL) and culture supernatants (Sup) were harvested 30 min after adding nigericin and immunoblotted with the indicated antibodies (FIG. 50). Caspase-1 activity was assayed 30 min after adding nigericin using a cell-permeable fluorescence dye FAM-YVAD-FMK (FIG. 52). […] Representative images of ASC specks (arrowheads) and mean±s.d. percent of cells with ASC specks analyzed 20 min later (FIGS. 48 and 49). Whole cell lysates (WCL) and culture supernatants (Sup), harvested 30 min after adding nigericin, were analyzed by immunoblot (FIG. 51). […] The Figures show representative confocal microscopy images and quantification of proportion of cells with GSDMD membrane staining and pyroptotic bubbles. Arrows indicate GSDMD staining of pyroptotic bubbles. […] FIGS. 57 and 58, dose response curve of the effect of Bay 11-7082 on caspase-1 (FIG. 57) and caspase-11 (FIG. 58) activity against a fluorescent peptide substrate. […] (FIG. 60). FIGS. 61 and 62 show dose response curve of the effect of Bay 11-7082 on liposome leakage induced by 0.3 μM human GSDMD-3C (FIG. 61) or mouse GSDMA3-3C (FIG. 62) plus 0.15 μM 3C protease. […] 2-fold dilutions of Bay 11-7082 from 5-40 μM were used. Graphs show the mean±s.d; data are representative of three independent experiments. *P<0.05, **P<0.01.

Assay [1] deals with caspase-1, GSDMD, and pro-IL-1β. As to the kind of experiment: Caspase-1, GSDMD, pro-IL-1β cleavage and IL-1β secretion by immunoblot, THP-1. Format: cell-based, human. The following applies: 30 μM. Here is the method: Immunoblot analysis: cell extracts were prepared using RIPA buffer (50 mM Tris-HCl pH 7.4, 150 mM NaCl, 1 mM EDTA, 1% Triton X-100, 0.1% SDS, 0.5% deoxycholate) supplemented with a complete protease inhibitor cocktail (Roche) and a PhosSTOP phosphatase inhibitor cocktail (Roche). Samples were subjected to SDS-PAGE and the resolved proteins were then transferred to a PVDF membrane (Millipore). Immunoblots were probed with indicated antibodies and visualized using a SuperSignal West Pico chemiluminescence ECL kit (Pierce).
To assess which steps in NLRP3-mediated inflammation were inhibited post ASC speck formation, LPS-primed THP-1 cells were treated with vehicle or 30 μM z-VAD-fmk, disulfiram or Bay 11-7082 1 hr before adding nigericin, and cleavage and activation of caspase-1, GSDMD, and pro-IL-1β were analysed by immunoblot of whole cell lysates 30 min later (FIG. 50). Secretion of processed IL-1β was also assessed by immunoblot of culture supernatants. […] Because immunoblots are not quantitative, caspase-1 activity 30 min after adding nigericin was also assessed using a fluorescent substrate in intact cells. […] Next, the effect of z-VAD-fmk, disulfiram and Bay 11-7082 on LPS+nigericin-induced GSDMD pore formation was assessed by immunofluorescence microscopy using a monoclonal antibody that was generated that recognizes both uncleaved GSDMD and its pore form (FIGS. 53, 54, and 64-66). In the absence of any inhibitor, the GSDMD antibody stained both the cytosol and the plasma membrane of LPS plus nigericin treated cells, which formed characteristic pyroptotic bubbles (See Reference 10). […] Thus, disulfiram and Bay 11-7082 inhibit multiple steps leading to canonical inflammasome-induced pyroptosis and inflammatory cytokine release, including priming, inflammasome assembly, inflammatory caspase activation, pro-inflammatory cytokine processing and GSDMD pore formation.
as §2
Canonical inflammasome assembly activates caspase-1, which cleaves pro-IL-1β and GSDMD, and the latter is needed to release processed IL-1β and to induce pyroptosis. […]

Another assay deals with caspase-1. As to the kind of experiment: Caspase-1 activity assay in cells (FAM-YVAD-FMK). The assay is classed as cell-based, human. The following applies: 30 μM, 30 min after nigericin. Here is the method:
Caspase-1 activity assay in cells: to measure caspase-1 activation, THP-1 cells were seeded into 96-well plates and differentiated with PMA. After the indicated treatments, cells were incubated with a fluorescent active caspase-1 substrate FAM-YVAD-FMK (Immunochemistry Technologies). Samples were read on a BioTek Synergy 2 plate reader.
as §2

Another assay relates to GSDMD pore formation. Put plainly: GSDMD membrane staining and pyroptotic bubbles, immunofluorescence. The assay is classed as cell-based, human. The following applies: 30 μM, 30 min after nigericin. The method, then: as §1
To assess which steps in NLRP3-mediated inflammation were inhibited post ASC speck formation, LPS-primed THP-1 cells were treated with vehicle or 30 μM z-VAD-fmk, disulfiram or Bay 11-7082 1 hr before adding nigericin, and cleavage and activation of caspase-1, GSDMD, and pro-IL-1β were analysed by immunoblot of whole cell lysates 30 min later (FIG. 50). Secretion of processed IL-1β was also assessed by immunoblot of culture supernatants. […] Because immunoblots are not quantitative, caspase-1 activity 30 min after adding nigericin was also assessed using a fluorescent substrate in intact cells. […] Next, the effect of z-VAD-fmk, disulfiram and Bay 11-7082 on LPS+nigericin-induced GSDMD pore formation was assessed by immunofluorescence microscopy using a monoclonal antibody that was generated that recognizes both uncleaved GSDMD and its pore form (FIGS. 53, 54, and 64-66). […]
Cell death was determined by CytoTox96 assay. […] Cell death was determined by CytoTox96 assay. […] Representative images of ASC specks (arrowheads) and mean±s.d. percent of cells with ASC specks analyzed 20 min later (FIG. 47). […] Caspase-1 activity was assayed 30 min after adding nigericin using a cell-permeable fluorescence dye FAM-YVAD-FMK (FIG. 52). […]

For another assay, the system named is mouse iBMDMs. Put plainly: Processing of caspase-1, GSDMD and IL-1β in iBMDMs (immunoblot). Format: cell-based. Conditions: 1 hr time point. The method, then: FIG. 97 contains a bar graph showing results of an experiment where LPS-primed THP-1 cells, after medium removal, were incubated with probe FAM-YVAD-FMK in FLICA assay buffer for another 0.5 hr before fluorescence reading. iBMDMs were pretreated with disulfiram, Bay 11-7082, necrosulfonamide (NSA) or z-VAD-fmk for 1 hr before treated or not with Nigericin for 0.5 hr. Whole cell lysates and culture supernatants were immunoblotted with the indicated antibodies.
FIG. 98 contains a bar graph showing results of an experiment where LPS-primed THP-1 cells, after medium removal, were incubated with probe FAM-YVAD-FMK in FLICA assay buffer for another 0.5 hr before fluorescence reading. iBMDMs were pretreated with disulfiram, Bay 11-7082, necrosulfonamide (NSA) or z-VAD-fmk for 1 hr before treated or not with Nigericin for 1 hr. Whole cell lysates and culture supernatants were immunoblotted with the indicated antibodies.
Canonical inflammasome assembly activates caspase-1, which cleaves pro-IL-1β and GSDMD, and the latter is needed to release processed IL-1β and to induce pyroptosis. To assess which steps in NLRP3-mediated inflammation were inhibited post ASC speck formation, LPS-primed THP-1 cells were treated with vehicle, 30 μM z-VAD-fmk or disulfiram 1 hour before adding nigericin, and cleavage and activation of caspase-1, GSDMD, and pro-IL-1β were analysed by immunoblot of whole cell lysates 30 min later and 1 hr later. Secretion of processed IL-1β was also assessed by immunoblot of culture supernatants. […] The 1 hr time point is relevant as the cell death and IL-1β release measurements used cells stimulated with nigericin for 1 and 2 hrs, respectively.

“Also recorded” adds a separate entry of the source.

Turning to `COC(=O)C[C@@H](C(=O)CF)N(C(=O)[C@@H](NC(=O)OCc1ccccc1)C(C)C)[C@@H](C)C(N)=O` [z-VAD-fmk], the “inhibition of canonical inflammasome pyroptosis” value in the assay on THP-1 cells is listed as “inhibits the canonical inflammasome pathway”. The ASC speck formation entry with ASC specks was “not inhibited”. The “processed IL-1β in culture supernatants” value in assay [1] is on record as “only detected in the culture supernatants in the absence of any inhibitor; also recorded: only detected in culture supernatants in the absence of either inhibitor”. The “caspase-1, GSDMD and pro-IL-1β cleavage” value in assay [1] (30 min after nigericin) is recorded as “dramatically reduced; also recorded: processing was reduced”. Moreover, in assay [1] (60 min after nigericin), the “processing of caspase-1, GSDMD and pro-IL-1β” value was “still showed little cleavage”. Also, in the assay with caspase-1, the “caspase-1 activity in intact cells” value is “completely inhibited”. Also, the “GSDMD membrane staining and pyroptotic bubbles” value in the assay with GSDMD pore formation is “completely blocked”. Besides, the “processing of caspase-1, GSDMD and IL-1β” value in the assay with mouse iBMDMs is “still inhibited processing”.
